Values joined by “and” are separate entries in the source; they are usually repeats but may differ in a detail not shown here. Identical values can stand only once.

Here are results for 56 molecules from publication PMC8587015, “AGSE: A Novel Grape Seed Extract Enriched for PP2A Activating Flavonoids That Combats Oxidative Stress and Promotes Skin Health” (Molecules, 2021).

The target of the first experiment is T1, PME-1 (Protein phosphatase methylesterase 1) (Homo sapiens, UniProt Q9Y570).
T1 sequence (Q9Y570 1-386): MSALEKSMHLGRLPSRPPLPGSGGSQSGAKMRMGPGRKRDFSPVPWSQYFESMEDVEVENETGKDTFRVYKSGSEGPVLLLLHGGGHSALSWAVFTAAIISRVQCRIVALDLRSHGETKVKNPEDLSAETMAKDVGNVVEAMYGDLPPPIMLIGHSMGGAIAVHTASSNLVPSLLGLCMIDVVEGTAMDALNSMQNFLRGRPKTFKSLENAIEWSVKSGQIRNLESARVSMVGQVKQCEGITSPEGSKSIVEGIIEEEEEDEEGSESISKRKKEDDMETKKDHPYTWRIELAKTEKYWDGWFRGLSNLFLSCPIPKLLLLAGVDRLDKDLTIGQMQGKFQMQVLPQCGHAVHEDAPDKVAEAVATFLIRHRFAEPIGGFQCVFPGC
Briefly: Demethylation of PP2A by PME-1, radioactive filter binding assay. Format: biochemical.
Conditions: not given
As to the method: [^3H]-labeled methylated PP2A AC dimer was prepared by incubating PP2A, LCMT1 and [^3H]-SAM (PerkinElmer; Waltham, MA, USA) in 50 mM MOPS-Na (pH 7.2), 5 mM MgCl2, and 1 mM DTT at room temperature for 1 h. Demethylation of PP2A by PME-1 (Protein phosphatase methylesterase 1) was measured using the radioactive filter binding assay format. 20 nM PME-1 was incubated for 15 min with extract or compound, then 20 nM of [^3H]-labeled methylated PP2A AC dimer was added. Reactions were run at room temperature for 30 min then applied to a 96-well filter plate (MilliporeSigma; Burlington, MA, USA.) containing 30% TCA where proteins were precipitated and separated from the excess of [^3H]-SAM by washing with 70% ethanol. [^3H]-incorporation was measured using TopCount NXT scintillation counter (PerkinElmer; Waltham, MA, USA). IC50 values were generated from dose–response curves using a four-parameter logistic curve fit in SigmaPlot (Systat Software, Inc., Palo Alto, CA, USA).
With `Oc1ccc(/C=C/c2cc(O)cc(O)c2)cc1` [Resveratrol], the “activity in preventing PP2A demethylation (in words)” value was “does not function through this PP2A mechanism”.

Still in this experiment, the particulars now being: GSE flavonoids / grape seed components; read-out: IC50, PP2A demethylation activity assay.
A word on the IC50: it is the point on the concentration scale where inhibition reaches its midpoint. Regarding `CC(=O)Oc1cc(O)c2c(c1)OC(c1ccc(OC(C)=O)c(OC(C)=O)c1)C(OC(C)=O)C2=O` (stereo not drawn) [2-(acetyloxy)-4-[3,7-bis(acetyloxy)-5-hydroxy-4-oxo-3,4-dihydro-2H-chromen-2-yl]phenyl acetate], the IC50 was above 15 µM.

On to `COc1cc(O)c(C(=O)/C=C/c2ccc(O)cc2)c(OC)c1` [2′,4-dihydroxy-4′,6′-dimethoxychalcone], for which the half-maximal inhibitory concentration (IC50) was above 25 µM.

As to `COc1cc(-c2oc3cc(O)cc(O)c3c(=O)c2O)ccc1O` [3,5,7,4′-Tetrahydroxy-3′-methoxyflavone], the half-inhibitory concentration (IC50) is above 15 µM. With `COc1cc(-c2oc3cc(O)cc(O)c3c(=O)c2O)cc(OC)c1OC` [3,5,7-Trihydroxy-3′,4′,5′-Trimethoxyflavone], the IC50 is above 15 µM. In the case of `Cc1ccc(O)c(O)c1` [4-methylcatechol], the 50% inhibitory concentration (IC50) is above 15 µM.

In the case of `COc1cc(OC)c2c(c1)OC(c1ccc(O)cc1)CC2=O` (stereo not drawn) [5,7-dimethoxy-4′hydroxyflavanone], the IC50 is above 25 µM. Same read-out and setting: for `O=c1cc(-c2ccc(O)cc2)oc2cc(O)cc(O)c12` [Apigenin] the value was above 15 µM; for `CO/C=C(/C(=O)OC)c1ccccc1Oc1cc(Oc2ccccc2C#N)ncn1` [Azoxystrobin], above 15 µM; for `O=c1cc(-c2ccccc2)oc2cc(O)c(O)c(O)c12` [Baicalein], 3.4 µM. With `COc1ccc(-c2coc3cc(O)cc(O)c3c2=O)cc1` [Biochanin a], the IC50 is around 15 µM. Still for that read-out and setting: for `O=C(O)/C=C/c1ccc(O)c(O)c1` [Caffeic Acid] the value was above 15 µM; for `Oc1cc(O)c2c(c1)O[C@H](c1ccc(O)c(O)c1)[C@@H](O)C2` [Catechin], above 15 µM; for `Oc1cc(O)c2cc(O)c(-c3ccc(O)c(O)c3)[o+]c2c1` [Cyanidin chloride], 4.3 µM. As for `Oc1cc(O)c2cc(O)c(-c3cc(O)c(O)c(O)c3)[o+]c2c1` [Delphinidin], the IC50 came to 5.1 µM. Turning to `O=c1c(-c2ccc(O)cc2)coc2cc(O)ccc12` [Diadzein], the IC50 was above 15 µM. On to `O=c1c(-c2ccc(O)cc2)coc2cc(O[C@@H]3O[C@H](CO)[C@@H](O)[C@H](O)[C@H]3O)ccc12` [Diadzin], for which the concentration for half-maximal inhibition (IC50) was above 15 µM.

In the case of `COc1ccc(-c2cc(=O)c3c(O)cc(O[C@@H]4O[C@H](CO[C@@H]5O[C@@H](C)[C@H](O)[C@@H](O)[C@H]5O)[C@@H](O)[C@H](O)[C@H]4O)cc3o2)cc1O` [Diosmin], the IC50 was around 25 µM. `O=C(O[C@@H]1Cc2c(O)cc(O)cc2O[C@@H]1c1ccc(O)c(O)c1)c1cc(O)c(O)c(O)c1` [Epicatechin gallate]: the IC50 was found to be 1.4 µM.

Take `O=C(O[C@@H]1Cc2c(O)cc(O)cc2O[C@@H]1c1cc(O)c(O)c(O)c1)c1cc(O)c(O)c(O)c1` [Epigallocatechin gallate]: the IC50 is 2.6 µM. Still for that read-out and setting: then `Oc1cc(O)c2c(c1)O[C@H](c1cc(O)c(O)c(O)c1)[C@H](O)C2` [Epigallocatechin], with above 15 µM; and `O=C1C[C@@H](c2ccc(O)c(O)c2)Oc2cc(O)cc(O)c21` [Eriodictyol], with above 25 µM.

In the case of `C=CCc1ccc(O)c(OC)c1` [Eugenol], the IC50 is above 15 µM. In the case of `COc1ccc(-c2coc3cc(O)ccc3c2=O)cc1` [Formonoetin], the concentration for half-maximal inhibition (IC50) is above 15 µM. Turning to `C=C[C@@]1(C)CC(=O)[C@]2(O)[C@@]3(C)[C@@H](O)CCC(C)(C)[C@@H]3[C@H](O)[C@H](OC(C)=O)[C@@]2(C)O1` [Forskolin], the IC50 is above 25 µM. Still for that read-out and setting: then `O=C(O)c1cc(O)c(O)c(O)c1` [Gallic acid], with above 15 µM; and `O=c1c(O)c(-c2ccc(O)c(O)c2)oc2c(O)c(O)cc(O)c12` [Gossypetin], with 4.9 µM.

`CC(C)NC(=O)N1CC(=O)N(c2cc(Cl)cc(Cl)c2)C1=O` [Iprodione]: the IC50 was above 15 µM. As to `O=c1cc(-c2ccc(O)c(O)c2)oc2cc(O)c([C@@H]3O[C@H](CO)[C@@H](O)[C@H](O)[C@H]3O)c(O)c12` [Isoorientin], the IC50 was above 25 µM. `O=c1c(O[C@@H]2O[C@H](CO)[C@@H](O)[C@H](O)[C@H]2O)c(-c2ccc(O)c(O)c2)oc2cc(O)cc(O)c12` [Isoquercetin]: the IC50 is above 15 µM.

For `COc1ccc(-c2oc3cc(O)cc(O)c3c(=O)c2O)cc1` [Kaempferide], the half-inhibitory concentration (IC50) came out at 2 µM.

With `O=c1cc(-c2ccc(O)c(O)c2)oc2cc(O[C@@H]3O[C@H](CO)[C@@H](O)[C@H](O)[C@H]3O)cc(O)c12` [Luteolin 7-O-B-glucoside], the IC50 was above 25 µM. Regarding `O=c1cc(-c2ccc(O)c(O)c2)oc2cc(O)cc(O)c12` [Luteolin], the IC50 is 1.7 µM.

Take `COc1c(O)cc2oc3cc(O)c(CC=C(C)C)c(O)c3c(=O)c2c1CC=C(C)C` [Mangostine]: the IC50 was 1.7 µM. In the case of `COC(=O)Cc1cc(=O)oc2cc(OC)c(OC)cc12` [Methyl 6,7-dimethoxycoumarin-4-acetate], the IC50 is above 25 µM. Regarding `O=c1c(O)c(-c2ccc(O)cc2O)oc2cc(O)cc(O)c12` [Morin], the IC50 is above 15 µM. For `CCCCC(C#N)(Cn1cncn1)c1ccc(Cl)cc1` (stereo not drawn) [Myclobutanil], the IC50 is above 15 µM. `O=c1c(O)c(-c2cc(O)c(O)c(O)c2)oc2cc(O)cc(O)c12` [Myricetin]: the 50% inhibitory concentration (IC50) stood at 0.99 µM.

Turning to `C[C@@H]1O[C@@H](O[C@H]2[C@H](Oc3cc(O)c4c(c3)O[C@H](c3ccc(O)cc3)CC4=O)O[C@H](CO)[C@@H](O)[C@@H]2O)[C@H](O)[C@H](O)[C@H]1O` [Naringin], the IC50 was above 25 µM. As to `C[C@@H]1O[C@@H](OC[C@H]2O[C@@H](Oc3cc(O)c4c(c3)O[C@H](c3ccc(O)cc3)CC4=O)[C@H](O)[C@@H](O)[C@@H]2O)[C@H](O)[C@H](O)[C@H]1O` [Narirutin], the half-inhibitory concentration (IC50) is above 25 µM.

As to `O=c1cc(-c2ccc(O)c(O)c2)oc2c([C@@H]3O[C@H](CO)[C@@H](O)[C@H](O)[C@H]3O)c(O)cc(O)c12` [Orientin], the IC50 was above 25 µM. On to `Oc1cc(O)cc(O)c1` [Phloroglucinol], for which the IC50 is above 15 µM.

In the case of `CC(C)(O)[C@@H]1[C@H]2OC(=O)[C@@H]1[C@]1(O)C[C@H]3O[C@]34C(=O)O[C@H]2[C@]14C` [Picrotin], the IC50 is above 25 µM.

As for `Oc1cc(O)c2c(c1)O[C@H](c1ccc(O)c(O)c1)[C@H](O)[C@H]2c1c(O)cc(O)c2c1O[C@H](c1ccc(O)c(O)c1)[C@@H](O)C2` [Procyanidin B1], the concentration for half-maximal inhibition (IC50) is above 35 µM. The same measure, in the same setting: for `Oc1cc(O)c2c(c1)O[C@H](c1ccc(O)c(O)c1)[C@H](O)[C@H]2c1c(O)cc(O)c2c1O[C@H](c1ccc(O)c(O)c1)[C@H](O)C2` [Procyanidin B2] the value was above 35 µM.

`Oc1cc(O)c2c(c1)O[C@H](c1ccc(O)c(O)c1)[C@@H](O)[C@@H]2c1c(O)cc(O)c2c1O[C@H](c1ccc(O)c(O)c1)[C@@H](O)C2` [Procyanidin B3]: the IC50 was above 35 µM.

As for `Oc1cccc(O)c1O` [Pyrogallol], the IC50 was around 15 µM. Consider `O=c1c(O)c(-c2ccc(O)c(O)c2)oc2cc(O)c(O)c(O)c12` [Quercetagetin], for which the IC50 is 0.5 µM and ~0.5 µM. For the molecule `O=c1c(O)c(-c2ccc(O)c(O)c2)oc2cc(O)cc(O)c12` [Quercetin], the IC50 came to 2.5 µM. For `Oc1ccc(/C=C/c2cc(O)cc(O)c2)cc1` [Resveratrol], the IC50 was above 100 µM. `C[C@@H]1O[C@@H](OC[C@H]2O[C@@H](Oc3c(-c4ccc(O)c(O)c4)oc4cc(O)cc(O)c4c3=O)[C@H](O)[C@@H](O)[C@@H]2O)[C@H](O)[C@H](O)[C@H]1O` [Rutin]: the IC50 was above 15 µM.

As to `COc1ccc(-c2cc(=O)c3c(O)cc(O)c(-c4cc(-c5cc(=O)c6c(O)cc(OC)cc6o5)ccc4OC)c3o2)cc1` [Sciadopitysin], the IC50 was 1.1 µM.

Regarding `O=C(O)[C@H]1O[C@@H](Oc2cc3oc(-c4ccc(O)cc4)cc(=O)c3c(O)c2O)[C@H](O)[C@@H](O)[C@@H]1O` [Scutellarin], the IC50 is 4.9 µM.

For `COc1cc(C(=O)O)cc(OC)c1O` [Syringic acid], the IC50 is above 15 µM. In the case of `CC(C)(C)C(O)(CCc1ccc(Cl)cc1)Cn1cncn1` (stereo not drawn) [Tebuconazole], the IC50 is above 15 µM. `COc1cc(C(=O)O)ccc1O` [Vanillic acid]: the IC50 is above 15 µM.

The same experiment, now with this note: IC50, PP2A demethylation activity assay, GSE flavonoids / grape seed components.
`COP(=S)(OC)SCN1C(=O)c2ccccc2C1=O` [Phosmet]: the IC50 was above 15 µM.
